Measurements reported in patent US7378375B1, “Substituted pyridine herbicides” (Syngenta Crop Protection, Inc., priority 2000, dated 2008).
Blank lines part the entries; values can stand above or below the compound they belong to.

Assays:
[1] = test system: Monocotyledonous and dicotyledonous test plants; assay: Post-emergence herbicidal action, greenhouse pot test, sprayed at the 2- to 3-leaf stage, 9-level rating after 2 to 3 weeks; format: in vivo; set-up: key: 9-level scale: 1 = complete damage, 9 = no effect; settings: 250 g/ha, rated after 2 to 3 weeks, 9-level scale
In short: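 Plants grown in standard soil in pots; test substances sprayed at the 2- to 3-leaf stage at optimum dosage (500 l water/ha) as aqueous suspension or emulsion from formulated concentrates. Plants then kept in the greenhouse under optimum conditions; rated after 2 to 3 weeks on a 9-level scale (1=complete damage, 9=no effect).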

[2] = test system: Monocotyledonous and dicotyledonous test plants; assay: Herbicidal action before emergence of the plants (pre-emergence action), greenhouse pot test, 9-level rating after 4 weeks; format: in vivo; set-up: key: 9-level scale: 1 = complete damage, 9 = no effect; settings: 250 g/ha, rated after 4 weeks, 9-level scale
In short: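 Compounds applied pre-emergence as a spray (500 l water/ha) of aqueous suspension or emulsion onto soil immediately after sowing mono- and dicot species in pots. Greenhouse-grown; damage rated after 4 weeks on a 9-level scale (1=complete damage, 9=no effect).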

SMILES: C#CCOCc1nc(C(F)(F)F)ccc1C(=O)C1=C(O)C2CCC(C2)C1=O (stereo not drawn) [1.016]
melting point: 71 to 74 °C

SMILES: O=C(C1=C(O)C2CCC(C2)C1=O)c1ccc(C(F)(F)F)nc1COCCOCC(F)(F)F (stereo not drawn) [1.066]
melting point: 40 to 44 °C

SMILES: CCCOCCOCc1nc(C(F)(F)F)ccc1C(=O)C1=C(O)C2CCC(C2)C1=O (stereo not drawn) [1.052]
melting point: 41 to 43 °C

melting point: 32 to 33 °C
SMILES: CCOCc1nc(C(F)(F)F)ccc1C(=O)c1cnn(C)c1O [1.020]

SMILES: COCCOCc1nc(C(F)(F)F)ccc1C(=O)C1=C(O)C(C)(C)C(=O)C(C)(C)C1=O [1.012]
melting point: 99 to 100 °C

SMILES: O=C(C1=C(O)C2CCC(C2)C1=O)c1ccc(C(F)(F)F)nc1COCc1ccccc1 (stereo not drawn) [1.068]
melting point: 68 to 69 °C

melting point: 46 to 47 °C
SMILES: O=C(c1ccc(C(F)(F)F)nc1COCC1CCCO1)C1C(=O)C2CCC(C2)C1=O (stereo not drawn) [1.073]

SMILES: O=C(C1=C(O)C2CCC(C2)C1=O)c1ccc(C(F)(F)F)nc1COCCCOCc1ccccc1 (stereo not drawn) [1.069]
melting point: 78 to 80 °C

melting point: 32 to 34 °C
SMILES: COCc1nc(C(F)(F)F)ccc1C(=O)c1cnn(C)c1O [1.019]

melting point: 110 to 112 °C
SMILES: CN(Cc1nc(C(F)(F)F)ccc1C(=O)c1cnn(C)c1O)S(C)(=O)=O [1.091]

SMILES: COc1ccccc1OCc1nc(C(F)(F)F)ccc1C(=O)C1=C(O)C2CCC(C2)C1=O (stereo not drawn) [1.028]
melting point: 113 to 115 °C

SMILES: CN(Cc1nc(C(F)(F)F)ccc1C(=O)C1=C(O)C2CCC(C2)C1=O)S(C)(=O)=O (stereo not drawn) [1.090]
melting point: 149 to 150 °C

SMILES: COCOCc1nc(C(F)(F)F)ccc1C(=O)C1=C(O)C2CCC(C2)C1=O (stereo not drawn) [1.017]
melting point: 95 to 98 °C

SMILES: COCCOCc1nc(C(F)(F)F)ccc1C(=O)C1=C(O)CC(C)CC1=O (stereo not drawn) [1.082]
melting point: 76 to 78 °C

melting point: 63 to 64 °C
SMILES: O=C(c1ccc(C(F)(F)F)nc1COCCCl)C1C(=O)C2CCC(C2)C1=O (stereo not drawn) [1.080]

SMILES: CC(=O)OCc1nc(C(F)(F)F)ccc1C(=O)C1=C(O)C2CCC(C2)C1=O.[K+] (stereo not drawn)
melting point: 145 to 150 °C

SMILES: O=C(C1=C(O)C2CCC(C2)C1=O)c1ccc(C(F)(F)F)nc1COC1COC1 (stereo not drawn) [1.065]
melting point: 102 to 105 °C

melting point: 54 to 56 °C
SMILES: O=C(C1=C(O)C2CCC(C2)C1=O)c1ccc(C(F)(F)F)nc1COCC1CO1 (stereo not drawn) [1.015]

melting point: 138 to 140 °C
SMILES: COCc1nc(C(F)(F)F)ccc1C(=O)c1c(C)nn(C)c1O [1.001]

melting point: 38 to 39 °C
SMILES: CCOCCOCc1nc(C(F)(F)F)ccc1C(=O)c1cnn(C)c1O [1.022]

melting point: 106 to 107 °C
SMILES: COC(=O)COCc1nc(C(F)(F)F)ccc1C(=O)C1=C(O)C2CCC(C2)C1=O (stereo not drawn) [1.031]

melting point: 75 to 76 °C
SMILES: CC1(C)C(=O)C(C(=O)c2ccc(C(F)(F)F)nc2COCc2ccccc2)C(=O)C(C)(C)C1=O [1.076]

melting point: 40 to 42 °C
SMILES: COCCOCc1nc(C(F)(F)F)ccc1C(=O)C1C(=O)CCC2(CC2)C1=O (stereo not drawn) [1.070]

SMILES: C=CCOCc1nc(C(F)(F)F)ccc1C(=O)C1=C(O)C2CCC(C2)C1=O (stereo not drawn) [1.018]
melting point: 53 to 55 °C

SMILES: CC(C)(C)C(=O)OC1=C(C(=O)c2ccc(C(F)(F)F)nc2COCCO)C(=O)C2CCC1C2 (stereo not drawn) [1.059]
melting point: 79 to 81 °C

SMILES: CC(=O)OCCOCc1nc(C(F)(F)F)ccc1C(=O)C1=C(O)C2CCC(C2)C1=O (stereo not drawn) [1.050]
melting point: 90 to 93 °C

SMILES: CCOCCOCc1nc(C(F)(F)F)ccc1C(=O)c1cnn(C)c1O [A11-C5]
Post-emergence action rating, Abutilon [1]: 2
Post-emergence action rating, Amaranth [1]: 2
Post-emergence action rating, Chenop. [1]: 1
Post-emergence action rating, Digitaria [1]: 2
Post-emergence action rating, Echino. [1]: 2
Post-emergence action rating, Ipopur. [1]: 2
Post-emergence action rating, Panicum [1]: 1
Post-emergence action rating, Xanth. [1]: 2
Pre-emergence action rating, Abutilon [2]: 1
Pre-emergence action rating, Amaranthus [2]: 1
Pre-emergence action rating, Chenop. [2]: 1
Pre-emergence action rating, Digitaria [2]: 2
Pre-emergence action rating, Echino. [2]: 1
Pre-emergence action rating, Panicum [2]: 1

melting point: 96 to 98 °C
SMILES: O=C(OCCOCc1nc(C(F)(F)F)ccc1C(=O)C1=C(OC(=O)c2ccccc2)C2CCC(C2)C1=O)c1ccccc1 (stereo not drawn) [1.055]

SMILES: CC(=O)OCc1nc(C(F)(F)F)ccc1C(=O)C1=C(O)C2CCC(C2)C1=O (stereo not drawn) [A833-B52, (H4), 3-(2-Hydroxy-4-oxobicyclo[3.2.1]oct-2-en-3-carbonyl)-6-trifluoromethylpyridin-2-yl methyl acetate]
Post-emergence action rating, Abutilon [1]: 3
Post-emergence action rating, Amaranth [1]: 2
Post-emergence action rating, Chenop. [1]: 3
Post-emergence action rating, Digitaria [1]: 3
Post-emergence action rating, Echino. [1]: 4
Post-emergence action rating, Ipopur. [1]: 2
Post-emergence action rating, Panicum [1]: 3
Post-emergence action rating, Xanth. [1]: 1
Pre-emergence action rating, Abutilon [2]: 1
Pre-emergence action rating, Amaranthus [2]: 1
Pre-emergence action rating, Chenop. [2]: 1
Pre-emergence action rating, Digitaria [2]: 1
Pre-emergence action rating, Echino. [2]: 1
Pre-emergence action rating, Panicum [2]: 1

SMILES: COCCOCc1nc(C(F)(F)F)ccc1C(=O)C1=C(O)C(C)(C)CC(C)C1=O (stereo not drawn) [A10-B4]
Post-emergence action rating, Abutilon [1]: 1
Post-emergence action rating, Amaranth [1]: 2
Post-emergence action rating, Chenop. [1]: 1
Post-emergence action rating, Digitaria [1]: 1
Post-emergence action rating, Echino. [1]: 2
Post-emergence action rating, Ipopur. [1]: 1
Post-emergence action rating, Panicum [1]: 1
Post-emergence action rating, Xanth. [1]: 2
Pre-emergence action rating, Abutilon [2]: 3
Pre-emergence action rating, Amaranthus [2]: 1
Pre-emergence action rating, Chenop. [2]: 1
Pre-emergence action rating, Digitaria [2]: 3
Pre-emergence action rating, Echino. [2]: 1
Pre-emergence action rating, Panicum [2]: 2

SMILES: CS(=O)(=O)CCOCc1nc(C(F)(F)F)ccc1C(=O)C1=C(O)C2CCC(C2)C1=O (stereo not drawn) [A819-B52]
Post-emergence action rating, Abutilon [1]: 2
Post-emergence action rating, Amaranth [1]: 2
Post-emergence action rating, Chenop. [1]: 1
Post-emergence action rating, Digitaria [1]: 3
Post-emergence action rating, Echino. [1]: 2
Post-emergence action rating, Ipopur. [1]: 2
Post-emergence action rating, Panicum [1]: 2
Post-emergence action rating, Xanth. [1]: 2
Pre-emergence action rating, Abutilon [2]: 1
Pre-emergence action rating, Amaranthus [2]: 2
Pre-emergence action rating, Chenop. [2]: 1
Pre-emergence action rating, Digitaria [2]: 9
Pre-emergence action rating, Echino. [2]: 7
Pre-emergence action rating, Panicum [2]: 7

SMILES: O=C(C1=C(O)C2CCC(C2)C1=O)c1ccc(C(F)(F)F)nc1COC1CCCCC1 (stereo not drawn) [A27-B52]
Post-emergence action rating, Abutilon [1]: 3
Post-emergence action rating, Amaranth [1]: 2
Post-emergence action rating, Chenop. [1]: 5
Post-emergence action rating, Digitaria [1]: 2
Post-emergence action rating, Echino. [1]: 2
Post-emergence action rating, Ipopur. [1]: 4
Post-emergence action rating, Panicum [1]: 1
Post-emergence action rating, Xanth. [1]: 2
Pre-emergence action rating, Abutilon [2]: 4
Pre-emergence action rating, Amaranthus [2]: 1
Pre-emergence action rating, Chenop. [2]: 3
Pre-emergence action rating, Digitaria [2]: 2
Pre-emergence action rating, Echino. [2]: 3
Pre-emergence action rating, Panicum [2]: 1

SMILES: C=CCOCCOCc1nc(C(F)(F)F)ccc1C(=O)C1=C(O)C2CCC(C2)C1=O (stereo not drawn) [A840-B52]
Post-emergence action rating, Abutilon [1]: 3
Post-emergence action rating, Amaranth [1]: 2
Post-emergence action rating, Chenop. [1]: 1
Post-emergence action rating, Digitaria [1]: 3
Post-emergence action rating, Echino. [1]: 4
Post-emergence action rating, Ipopur. [1]: 3
Post-emergence action rating, Panicum [1]: 2
Post-emergence action rating, Xanth. [1]: 3
Pre-emergence action rating, Abutilon [2]: 2
Pre-emergence action rating, Amaranthus [2]: 2
Pre-emergence action rating, Chenop. [2]: 1
Pre-emergence action rating, Digitaria [2]: 2
Pre-emergence action rating, Echino. [2]: 2
Pre-emergence action rating, Panicum [2]: 1
